Values after ≈ are worked out from the molar mass of the structure shown.
Columns and labels:
Rattus norvegicus [1] = assay: Hepatotoxicity in neutropenic rat assessed as ASAT level in serum at 10 mg/kg/day, ip administered 72 hrs post infection for 10 days measured on day 13 after infection (Rvb=46.6+/-6.1 U/l); assay type: toxicity, organism-based; set-up: route intraperitoneal; settings: in vivo
Rattus norvegicus [2] = assay: Renal toxicity in neutropenic rat assessed as […] in serum at 10 mg/kg/day, ip administered 72 hrs post infection for 3 days followed by 4 mg/kg/day, ip for 7 days measured on day 13 after infection (Rvb=26.7+/-6.1 umol/l); assay type: organism-based; settings: in vivo
Rattus norvegicus [3] = assay: Hepatotoxicity in neutropenic rat assessed as ALAT level in serum at 10 mg/kg/day, ip administered 72 hrs post infection for 3 days followed by 4 mg/kg/day, ip for 7 days measured on day 6 after infection (Rvb=43.9+/-7.9 U/l); assay type: toxicity, organism-based; settings: in vivo
Rattus norvegicus [4] = assay: Renal toxicity in neutropenic rat assessed as creatine level in serum at 10 mg/kg/day, ip administered 72 hrs post infection for 10 days measured on day 13 after infection (Rvb=26.7+/-6.1 umol/l); assay type: organism-based; set-up: route intraperitoneal; settings: in vivo
Rattus norvegicus [5] = assay: Hepatotoxicity in neutropenic rat assessed as ALAT level in serum at 4 mg/kg/day, ip administered 72 hrs post infection for 10 days measured on day 6 after infection (Rvb=43.9+/-7.9 U/l); assay type: toxicity, organism-based; set-up: route intraperitoneal; settings: in vivo
Rattus norvegicus [6] = assay: Hepatotoxicity in neutropenic rat assessed as ALAT level in serum at 10 mg/kg/day, ip administered 72 hrs post infection for 10 days measured on day 13 after infection (Rvb=51.3+/-5.2 U/l); assay type: toxicity, organism-based; set-up: route intraperitoneal; settings: in vivo
Aspergillus fumigatus [7] = assay: Antifungal activity against Aspergillus fumigatus infected in neutropenic rat assessed as survival of rat at 4 mg/kg/day, ip administered 16 hrs post infection for 10 days; assay type: functional; settings: route intraperitoneal
[8] = AUC in neutropenic rat at 10 mg/kg/day for 3 days followed by 4 mg/kg/day for 7 days measured after 10 days; assay type: ADME, organism-based; settings: plasma
Rattus norvegicus [9] = assay: Renal toxicity in neutropenic rat assessed as blood urea nitrogen level in serum at 4 mg/kg/day, ip administered 72 hrs post infection for 10 days measured on day 13 after infection (Rvb=5.8+/-0.4 mmol/l); assay type: organism-based; set-up: route intraperitoneal; settings: in vivo
Aspergillus fumigatus [10] = assay: Antifungal activity against Aspergillus fumigatus infected in neutropenic rat assessed as survival of rat at 10 mg/kg/day, ip administered 72 hrs post infection for 10 days; assay type: functional; settings: route intraperitoneal
Rattus norvegicus [11] = assay: Renal toxicity in neutropenic rat assessed as creatine level in serum at 4 mg/kg/day, ip administered 72 hrs post infection for 10 days measured on day 6 after infection (Rvb=34.8+/-5.8 umol/l); assay type: organism-based; set-up: route intraperitoneal; settings: in vivo
Rattus norvegicus [12] = assay: Renal toxicity in neutropenic rat assessed as blood urea nitrogen level in serum at 10 mg/kg/day, ip administered 72 hrs post infection for 10 days measured on day 6 after infection (Rvb=4.4+/-0.5 mmol/l); assay type: organism-based; set-up: route intraperitoneal; settings: in vivo
[13] = AUC in neutropenic rat at 10 mg/kg/day after 3 days; assay type: ADME, organism-based; settings: plasma
Rattus norvegicus [14] = assay: Renal toxicity in neutropenic rat assessed as […] in serum at 10 mg/kg/day, ip administered 72 hrs post infection for 10 days measured on day 6 after infection (Rvb=34.8+/-5.8 umol/l); assay type: organism-based; set-up: route intraperitoneal; settings: in vivo
Rattus norvegicus [15] = assay: Renal toxicity in neutropenic rat assessed as blood urea nitrogen level in serum at 10 mg/kg/day, ip administered 72 hrs post infection for 3 days followed by 4 mg/kg/day, ip for 7 days measured on day 6 after infection (Rvb=4.4+/-0.5 mmol/l); assay type: organism-based; settings: in vivo
Rattus norvegicus [16] = assay: Hepatotoxicity in neutropenic rat assessed as ASAT level in serum at 4 mg/kg/day, ip administered 72 hrs post infection for 10 days measured on day 6 after infection (Rvb=51.2+/-9.4 U/l); assay type: toxicity, organism-based; set-up: route intraperitoneal; settings: in vivo
Rattus norvegicus [17] = assay: Hepatotoxicity in neutropenic rat assessed as ALAT level in serum at 4 mg/kg/day, ip administered 72 hrs post infection for 10 days measured on day 13 after infection (Rvb=51.3+/-5.2 U/l); assay type: toxicity, organism-based; set-up: route intraperitoneal; settings: in vivo
Rattus norvegicus [18] = assay: Hepatotoxicity in neutropenic rat assessed as ASAT level in serum at 10 mg/kg/day, ip administered 72 hrs post infection for 3 days followed by 4 mg/kg/day, ip for 7 days measured on day 13 after infection (Rvb=46.6+/-6.1 U/l); assay type: toxicity, organism-based; settings: in vivo
Rattus norvegicus [19] = assay: Hepatotoxicity in neutropenic rat assessed as ALAT level in serum at 10 mg/kg/day, ip administered 72 hrs post infection for 3 days followed by 4 mg/kg/day, ip for 7 days measured on day 13 after infection (Rvb=51.3+/-5.2 U/l); assay type: toxicity, organism-based; settings: in vivo
Rattus norvegicus [20] = assay: Renal toxicity in neutropenic rat assessed as creatine level in serum at 4 mg/kg/day, ip administered 72 hrs post infection for 10 days measured on day 13 after infection (Rvb=26.7+/-6.1 umol/l); assay type: organism-based; set-up: route intraperitoneal; settings: in vivo
Rattus norvegicus [21] = assay: Hepatotoxicity in neutropenic rat assessed as ASAT level in serum at 10 mg/kg/day, ip administered 72 hrs post infection for 10 days measured on day 6 after infection (Rvb=51.2+/-9.4 U/l); assay type: toxicity, organism-based; set-up: route intraperitoneal; settings: in vivo
Rattus norvegicus [22] = assay: Renal toxicity in neutropenic rat assessed as blood urea nitrogen level in serum at 10 mg/kg/day, ip administered 72 hrs post infection for 3 days followed by 4 mg/kg/day, ip for 7 days measured on day 13 after infection (Rvb=5.8+/-0.4 mmol/l); assay type: organism-based; settings: in vivo
Rattus norvegicus [23] = assay: Hepatotoxicity in neutropenic rat assessed as ASAT level in serum at 10 mg/kg/day, ip administered 72 hrs post infection for 3 days followed by 4 mg/kg/day, ip for 7 days measured on day 6 after infection (Rvb=51.2+/-9.4 U/l); assay type: toxicity, organism-based; settings: in vivo
Aspergillus fumigatus [24] = assay: Antifungal activity against Aspergillus fumigatus by CLSI method; assay type: functional
Aspergillus fumigatus [25] = assay: Antifungal activity against Aspergillus fumigatus infected in neutropenic rat assessed as survival of rat at 4 mg/kg/day, ip administered 24 hrs post infection for 10 days; assay type: functional; settings: route intraperitoneal
Rattus norvegicus [26] = assay: Hepatotoxicity in neutropenic rat assessed as ALAT level in serum at 10 mg/kg/day, ip administered 72 hrs post infection for 10 days measured on day 6 after infection (Rvb=43.9+/-7.9 U/l); assay type: toxicity, organism-based; set-up: route intraperitoneal; settings: in vivo
Rattus norvegicus [27] = assay: Renal toxicity in neutropenic rat assessed as blood urea nitrogen level in serum at 4 mg/kg/day, ip administered 72 hrs post infection for 10 days measured on day 6 after infection (Rvb=4.4+/-0.5 mmol/l); assay type: organism-based; set-up: route intraperitoneal; settings: in vivo
Rattus norvegicus [28] = assay: Hepatotoxicity in neutropenic rat assessed as ASAT level in serum at 4 mg/kg/day, ip administered 72 hrs post infection for 10 days measured on day 13 after infection (Rvb=46.6+/-6.1 U/l); assay type: toxicity, organism-based; set-up: route intraperitoneal; settings: in vivo
Aspergillus fumigatus [29] = assay: Antifungal activity against Aspergillus fumigatus by Etest method; assay type: functional
Aspergillus fumigatus [30] = assay: Antifungal activity against Aspergillus fumigatus infected in neutropenic rat assessed as survival of rat at 4 mg/kg/day, ip administered 72 hrs post infection for 10 days; assay type: functional; settings: route intraperitoneal
Rattus norvegicus [31] = assay: Renal toxicity in neutropenic rat assessed as creatine level in serum at 10 mg/kg/day, ip administered 72 hrs post infection for 3 days followed by 4 mg/kg/day, ip for 7 days measured on day 6 after infection (Rvb=34.8+/-5.8 umol/l); assay type: organism-based; settings: in vivo
Rattus norvegicus [32] = assay: Renal toxicity in neutropenic rat assessed as blood urea nitrogen level in serum at 10 mg/kg/day, ip administered 72 hrs post infection for 10 days measured on day 13 (Rvb=5.8+/-0.4 mmol/l); assay type: organism-based; set-up: route intraperitoneal; settings: in vivo

Which Activity (Rattus norvegicus [1]) does the source give for `CC[C@H](C)C[C@H](C)CCCCCCCCC(=O)N[C@H]1C[C@@H](O)[C@@H](NCCN)NC(=O)[C@@H]2[C@@H](O)CCN2C(=O)[C@H]([C@H](O)CCN)NC(=O)[C@H]([C@H](O)[C@@H](O)c2ccc(O)cc2)NC(=O)[C@@H]2C[C@@H](O)CN2C(=O)[C@H]([C@@H](C)O)NC1=O` [CASPOFUNGIN] here?
The Activity was 68 U/L.

What about the Activity (Rattus norvegicus [2]) of the same molecule?
Its Activity is 31 µmol/L.

What about the Activity (Rattus norvegicus [3]) of the same molecule?
Its Activity is 61.6 U/L.

What about the Activity (Rattus norvegicus [4]) of the same molecule?
Its Activity is 28.4 µmol/L.

And the Activity (Rattus norvegicus [5])?
Its Activity is 41.4 U/L.

What about the Activity (Rattus norvegicus [6]) of the same molecule?
The Activity was 36.4 U/L.

What about the Activity (Aspergillus fumigatus [7]) of the same molecule?
The Activity was 100%.

And the AUC at 240 h [8]?
Its AUC at 240 h is 114 µg·h/mL.

What about the Activity (Rattus norvegicus [9]) of the same molecule?
The Activity was 15.7 mmol/L.

And the Activity (Aspergillus fumigatus [10])?
Its Activity is 67%.

What about the Activity (Rattus norvegicus [11]) of the same molecule?
The Activity was 44.3 µmol/L.

What about the Activity (Rattus norvegicus [12]) of the same molecule?
Its Activity is 10.9 mmol/L.

What about the AUC at 72 h [13] of the same molecule?
Its AUC at 72 h is 549 µg·h/mL.

And the Activity (Rattus norvegicus [14])?
The Activity was 42 µmol/L.

What about the Activity (Rattus norvegicus [15]) of the same molecule?
Its Activity is 5.9 mmol/L.

What about the Activity (Rattus norvegicus [16]) of the same molecule?
The Activity was 118 U/L.

And the Activity (Rattus norvegicus [17])?
The Activity was 94.2 U/L.

And the Activity (Rattus norvegicus [18])?
The Activity was 50.2 U/L.

What about the Activity (Rattus norvegicus [19]) of the same molecule?
Its Activity is 50.5 U/L.

What about the Activity (Rattus norvegicus [20]) of the same molecule?
The Activity was 24 µmol/L.

What about the Activity (Rattus norvegicus [21]) of the same molecule?
Its Activity is 113 U/L.

And the Activity (Rattus norvegicus [22])?
The Activity was 6.9 mmol/L.

And the Activity (Rattus norvegicus [23])?
The Activity was 49.3 U/L.

And the MIC (Aspergillus fumigatus [24])?
Its MIC is 8 µg/mL (≈ 7.32 µM).

What about the Activity (Aspergillus fumigatus [25]) of the same molecule?
The Activity was 93%.

And the Activity (Rattus norvegicus [26])?
The Activity was 31.5 U/L.

And the Activity (Rattus norvegicus [27])?
Its Activity is 12.2 mmol/L.

And the Activity (Rattus norvegicus [28])?
Its Activity is 138.4 U/L.

What about the MIC (Aspergillus fumigatus [29]) of the same molecule?
Its MIC is 0.05 µg/mL (≈ 0.0457 µM).

What about the Activity (Aspergillus fumigatus [30]) of the same molecule?
The Activity was 27%.

And the Activity (Rattus norvegicus [31])?
Its Activity is 36.5 µmol/L.

What about the Activity (Rattus norvegicus [32]) of the same molecule?
Its Activity is 11.4 mmol/L.

Source: ChEMBL document CHEMBL1255278, “Caspofungin prolongs survival of transiently neutropenic rats with advanced-stage invasive pulmonary aspergillosis” (Antimicrob Agents Chemother, 2008)
